Results on two molecules are retold here after patent publication US4816467A, “Heteroaryl 3-oxo-propanenitrile derivatives, pharmaceutical compositions and use” (Farmitalia Carlo Erba s.r.l, priority 1987, dated 1989).

Data set [1] can be described thus: approximate acute toxicity (LD50) in the mouse, per os. The note with it: in vivo, po, single administration of increasing doses, measured on the seventh day. How it is done:
For example, the approximate acute toxicity (LD50) in the mouse of the compounds 2-cyano-3-(1,4-dihydro-1-phenyl-[1]-benzopyrano[4,3-c]pyrazol-3-yl)-3-oxo- N-phenyl-propanamide, and 2-cyano-3-(1,4-dihydro-1-phenyl-[1]-benzothiopyrano[4,3-c]pyrazol-3-yl)-3- oxo-N-phenyl-propanamide, determined per os with single administration of increasing doses and measured on the seventh day after the day of treatment, is higher than 800 mg/kg. Analogous toxicity data have been found for the other compounds of the invention.

For another data set, the system named is L. monocytogenes. Description: Activity on L. monocytogenes infection in mice. Format: in vivo. The settings on record: L. monocytogenes 1 × LD50 i.v., controls 75. How it is done:
(§1) The compound of the present invention 2-cyano-3-(1,4-dihydro-1-phenyl-[1]-benzothiopyrano[4,3-c]pyrazol-3-yl)-3- oxo-N-phenyl-propanamide (internal code FCE 24578), for instance, was tested, according to the procedure described by Cleeland R., Grunberg E. 1986, 825-876, "Antibiotics in Laboratory Medicine" Lorian V. Editor (Williams and Wilkins), in the following models of infection: L. monocytogenes; D. pneumoniae; S. flexneri and P. aeruginosa; the last one being performed in cyclophosphamide immunosuppressed mice, according to Cryz S. J., Furer E., Germanier R., 1983, Infect. Imm., 39, 1067-1071.
Activity of FCE 24578 on L. monocytogenes infection
Treatments with FCE 2457B or vehicle were performed on -3, -2, -1 and 0
day before the infection (1 × LD50) given i.v.

For a further data set, the system named is P. aeruginosa. Kind of data set: Activity on P. aeruginosa infection in immunosuppressed mice. It counts as in vivo. The note with it: cyclophosphamide immunosuppressed; for % mortality 1 × LD50: P. aeruginosa 1 × LD50 i.v., controls 80; for % mortality 2 × LD50: P. aeruginosa 2 × LD50 i.v., controls 90. As to the method: as §1
Activity of FCE 24578 on P. aeruginosa infection
in immunosuppressed mice
Cyclophosphamide (200 mg/kg) was administered i.p. on the fourth day
The treatments with FCE 24578 or vehicle were performed on -3, -2, -1 and
0 day before the infection (2 × LD50 and 1 × LD50)

Another data set deals with D. pneumoniae. Kind of data set: Activity on D. pneumoniae infection in mice. Format: in vivo. The settings on record: infection 3 × LD50 i.p. As to the method: as §1
(§2) Activity of FCE 24578 on S. flexneri and D. pneumoniae
(§3) Infection (3 × LD50) was given i.p.
(§4) Treatments with FCE 24578 or vehicle were performed on -3, -2, -1 and 0
MST = Mean Survival Time.
*= significant for p < 0.01.

A further data set concerns S. flexneri. Description: Activity on S. flexneri infection in mice. The settings on record: infection 3 × LD50 i.p., controls 100. It counts as in vivo. As to the method:
as §1, §2, §3, §4

In data set [1], `N#CC(C(=O)Nc1ccccc1)C(=O)c1nn(-c2ccccc2)c2c1CSc1ccccc1-2` (centres unmarked) [FCE 24578, 2-cyano-3-(1,4-dihydro-1-phenyl-[1]-benzothiopyrano[4,3-c]pyrazol-3-yl)-3-oxo-N-phenyl-propanamide] came in with an LD50 at 168 h of over 800 mg/kg. For the same molecule, the “% mortality 1 × LD50” value is listed as 12.5% in the data set with L. monocytogenes (10 mg/kg i.p.); 0% with L. monocytogenes (50 mg/kg i.p.); 37.5% in the data set on L. monocytogenes (50 mg/kg p.o.); 25% in the data set on L. monocytogenes (250 mg/kg p.o.); 0% in the data set with P. aeruginosa (10 mg/kg i.p.); 0% in the data set with P. aeruginosa (50 mg/kg i.p.). Also, the “% mortality 2 × LD50” value with P. aeruginosa (10 mg/kg i.p.) and with P. aeruginosa (50 mg/kg i.p.) was 0% in each case. In addition, the “MST (Mean Survival Time)” value in the data set on D. pneumoniae (10 mg/kg i.p. on -3, -2, -1 and 0 day before infection, controls 3.1) amounted to 4 days; in the data set with D. pneumoniae (50 mg/kg i.p. on -3, -2, -1 and 0 day before infection, controls 3.1, * = significant for p < 0.01) it was 5.7 days. The “% mortality” value is recorded as 40% in the data set on S. flexneri (10 mg/kg i.p. on -3, -2, -1 and 0 day before infection); 10% in the data set on S. flexneri (50 mg/kg i.p. on -3, -2, -1 and 0 day before infection).

`N#CC(C(=O)Nc1ccccc1)C(=O)c1nn(-c2ccccc2)c2c1COc1ccccc1-2` (centres unmarked) [FCE 25158, 2-cyano-3-(1,4-dihydro-1-phenyl-[1]-benzopyrano[4,3-c]pyrazol-3-yl)-3-oxo-N-phenyl-propanamide] yielded an LD50 at 168 h in data set [1] of over 800 mg/kg.
